Laboratory results as given in paper PMC6530997, “Asymmetry in catalysis by Thermotoga maritima membrane-bound pyrophosphatase demonstrated by a nonphosphorus allosteric inhibitor” (Science Advances, 2019).
Like-named read-outs stand apart in the source and are kept apart here.

Tests used:
[1] = target: T1, TmPPase (Thermotoga maritima, UniProt Q9S5X0); experiment: TmPPase activity inhibition, molybdenum blue 96-well plate assay; assay type: biochemical; conditions: for IC50: purified TmPPase in DDM, 71°C, 2 min; for activity against TmPPase (in words): SAR discussion; for fold less active / weaker than ATC: IC50 relative to ATC
T1 construct: His; made in house; host or cells: Saccharomyces cerevisiae strain BJ1991
T1 sequence (Q9S5X0 whole entry): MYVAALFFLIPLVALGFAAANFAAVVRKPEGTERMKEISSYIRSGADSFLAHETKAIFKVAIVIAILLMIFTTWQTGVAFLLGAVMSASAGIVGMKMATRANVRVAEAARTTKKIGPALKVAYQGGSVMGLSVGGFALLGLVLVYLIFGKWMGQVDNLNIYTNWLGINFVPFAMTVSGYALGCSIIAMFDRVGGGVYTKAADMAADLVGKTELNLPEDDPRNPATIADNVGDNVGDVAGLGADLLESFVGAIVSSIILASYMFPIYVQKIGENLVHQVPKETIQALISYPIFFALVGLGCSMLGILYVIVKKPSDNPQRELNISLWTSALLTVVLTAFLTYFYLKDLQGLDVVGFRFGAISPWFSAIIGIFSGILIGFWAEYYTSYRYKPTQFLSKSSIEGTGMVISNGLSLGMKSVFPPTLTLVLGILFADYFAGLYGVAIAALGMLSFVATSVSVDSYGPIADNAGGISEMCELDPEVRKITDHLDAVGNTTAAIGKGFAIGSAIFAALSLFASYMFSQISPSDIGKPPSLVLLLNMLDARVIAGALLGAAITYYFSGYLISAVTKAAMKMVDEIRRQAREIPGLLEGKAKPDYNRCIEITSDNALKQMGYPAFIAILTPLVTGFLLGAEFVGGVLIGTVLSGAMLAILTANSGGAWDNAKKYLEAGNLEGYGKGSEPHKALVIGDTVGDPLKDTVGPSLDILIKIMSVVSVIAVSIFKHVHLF
Source text: The screening process that led to the discovery of compound 1 (ATC) will be described in more detail elsewhere. Briefly, we tested compounds using a recently developed 96-well plate assay with TmPPase as a model system ([37]). The screening collections included compounds synthesized in our laboratories. The identification of ATC as an inhibitor was followed by the test of analogs 2 to 5. ATC and its analogs were initially developed for their antimicrobial, antiviral, and anticancer activities, as reported elsewhere ([38]).
(§1) TmPPase activity, compound screening, and kinetic experiments were done using the molybdenum blue reaction method in a purified protein solubilized in DDM ([37]). Initial reaction rates of TmPPase were determined using PPi as the substrate and ATC as the inhibitor at varying concentrations. The concentration of MgCl2 and Na4PPi required to maintain 5 mM free Mg^2+ at pH 8.0 was approximated as described previously ([41]). The reaction was done in reaction buffer [60 mM tris-HCl (pH 8.0), 5 mM free Mg^2+, 100 mM KCl, and 10 mM NaCl] at 71°C for 2 min. We chose a 2-min reaction time as it still produces a reaction product in a linear range (fig. S7).

[2] = target: T1, TmPPase; experiment: Kinetic analysis of ATC inhibition of PPi hydrolysis by TmPPase; assay type: biochemical
Protocol: As ATC is a potent inhibitor, we further characterized its effect on the rate of substrate (PPi) hydrolysis using a range of ATC concentrations (0.0 to 12.0 μM). We performed the kinetic assay using PPi concentrations from 0 to 1714 μM at 71°C with a single-point measurement at 2 min (Fig. 4D), having shown that this is within the linear range for initial rates (fig. S7).
The model is a variant on that used by Artukka et al. ([23]) and is required as there is half-of-the-sites reactivity. The sum of squares when fitting the inhibition curves with an ATC monomer (i.e., n = 1 in Fig. 5) is 5268, and the SD of the residuals (Sy.x) is 4.3; when fitting an ATC dimer, the values are 855 and 1.8, respectively. […] This means that ATC binds as a dimer to TmPPase.
as §1
For analysis, we used a variant of Artukka and co-workers’ method ([23]), which assumes that the two active sites in an mPPase dimer interact allosterically, with the addition of inhibitor binding to the two active sites (Fig. 5). E2 represents the dimeric enzyme, S is the substrate (Na4PPi), I is the inhibitor (ATC), and n is the number of ATC molecules bound to the enzyme. KS is a microscopic Michaelis-Menten constant, and kp is the per-site maximum rate for the substrate complex. α is the factor relating the binding of the first substrate molecule (KS) to the binding of the second, β is the factor relating the rate of hydrolysis of the E2S complex (kp) to that of the E2S2 complex, and KI1obs, KI2obs, and KI3obs are the observed inhibition constants for binding to the E2, E2S, and E2S2 complexes.
For the mechanism in Fig. 5 with n = 2 (i.e., only inhibitor dimers bind), the rate Eq. 1 ([42]) is v=(2kp+2βkp[S]/αKs)/2(1+[I]^2/(KI2obs)^2)+(Ks/[S])(1+[I]^2/(KI1obs)^2)+([S]/αKs)(1+[I]^2/(KI3obs)^2) (1) where [S] and [I] correspond to substrate and inhibitor concentrations, respectively, and the equilibrium and Michaelis-type constants are as in Fig. 5. The kinetic data were fit together to obtain all parameter values and their SEs by nonlinear regression as a function of inhibitor (0, 1.0, 2.0, 4.0, 8.0, and 12.0 μM) and substrate (0 to 1714 μM) concentrations using Prism 6.0 (GraphPad Software). Eliminating the KI1 terms had no effect on the overall quality of fit.

[3] = target: PfPPase-VP1 (in membrane) (Plasmodium falciparum, UniProt Q8IKR1); experiment: Inhibition of PfPPase-VP1 in isolated membranes; assay type: biochemical
Chain of PfPPase-VP1 (in membrane) (Plasmodium falciparum, UniProt Q8IKR1) (Q8IKR1 entry or part of it): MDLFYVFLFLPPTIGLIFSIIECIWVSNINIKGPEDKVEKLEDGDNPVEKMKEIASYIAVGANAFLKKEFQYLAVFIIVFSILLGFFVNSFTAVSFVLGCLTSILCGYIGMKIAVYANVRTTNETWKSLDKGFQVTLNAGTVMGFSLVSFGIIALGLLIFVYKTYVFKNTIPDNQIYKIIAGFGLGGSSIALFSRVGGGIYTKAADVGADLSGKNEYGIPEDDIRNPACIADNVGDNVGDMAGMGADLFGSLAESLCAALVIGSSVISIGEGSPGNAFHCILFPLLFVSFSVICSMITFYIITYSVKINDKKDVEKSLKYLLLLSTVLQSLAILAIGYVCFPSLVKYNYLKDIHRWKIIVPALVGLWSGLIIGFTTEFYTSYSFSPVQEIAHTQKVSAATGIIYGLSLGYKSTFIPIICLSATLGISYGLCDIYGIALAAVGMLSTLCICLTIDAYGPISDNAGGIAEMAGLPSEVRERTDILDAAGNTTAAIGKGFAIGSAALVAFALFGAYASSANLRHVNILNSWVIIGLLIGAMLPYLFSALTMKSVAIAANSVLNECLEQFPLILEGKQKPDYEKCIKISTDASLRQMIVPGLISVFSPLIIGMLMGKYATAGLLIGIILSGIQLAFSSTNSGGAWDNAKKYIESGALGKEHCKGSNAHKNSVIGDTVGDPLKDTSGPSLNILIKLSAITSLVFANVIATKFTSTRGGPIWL
Source text: (§2) Fig. S6. Effect of ATC on growth of P. falciparum and on PfPPase. (A) Inhibition effect of ATC on PfPPase-VP1 (in membrane) from P. falciparum expressed in insect cell baculovirus expression system (method and further analysis will be described in more detail elsewhere). ATC […]
(§3) (B) ATC has no anti-plasmodial […]
(§4) activity up to 100  µM. (C) Anti-plasmodial activity of artemisinin, as a positive control.
(§5) (1 picture or pasted object on this page, not shown here)

[4] = tested on: PfPPase-VP1 (in membrane); experiment: Inhibition of PfPPase-VP1 in isolated membranes; assay type: biochemical; conditions: PfPPase IC50 versus TmPPase IC50
Source text: as §2, §3, §4, §5

[5] = tested on: Plasmodium falciparum strain 3D7; experiment: Anti-plasmodial activity assay (SYBR Green I, 72 h); assay type: cell-based
Protocol: Size-exclusion chromatography – Multi angle laser light scattering (SEC-MALLS) 50  µg of TmPPase purified in DDM with IDP (1 mM) and IDP+ATC (1 mM each) were run through a Superdex 200 10/300 GL equilibrated with a buffer containing 50 mM MES-NaOH pH 6.5, 50 mM KCl, 5 mM MgCl2, 2 mM DTT and 0.05% DDM using a HPLC-system (Shimadzu).
The eluted samples from the column were analysed using UV-absorbance, refractive index (Optilab rEX, Wyatt) and multi angle laser light scattering (miniDAWN TREOS, Wyatt) detectors and the enzyme molecular mass was calculated using ASTRA software (Wyatt).
Anti-plasmodial activity assay
For the in vitro anti-plasmodial activity assay, Plasmodium falciparum strain 3D7 was maintained in culture as described previously (56). Briefly, parasites were cultured in O+ human erythrocytes at 5% haematocrit in RPMI-1640 medium supplemented with 0.5% Albumax II (Gibco, Carlsbad, CA, USA), 200 μM hypoxanthine (Sigma, St. Louis, MO, USA) and 20 μg ml-1 gentamycin (Gibco). […]
Fifty microliters of each dilution were mixed in a 96-well plate with 150 µl of 2% haematocrit of 0.5% parasitemia (ring stage). After 72 h incubation at 37 °C, the parasite growth was quantified using fluorescent SYBR Green I®-based assay as described (58). The half-maximal inhibitory concentration (IC50) of the test compound was assessed by non-linear regression in Prism 7 (GraphPad Software). […]

[6] = target: T1, TmPPase; experiment: Kinetic analysis of ATC inhibition of PPi hydrolysis by TmPPase; assay type: biochemical; conditions: PPi conc. 1721
[7] = PfPPase-VP1 expressed in insect cell baculovirus system

Nc1nc2ccc(CNC(=O)c3cc4ccccc4[nH]3)cc2s1 [ATC, N-[(2-amino-6-benzothiazolyl)methyl]-1H-indole-2-carboxamide]
IC50 [1]: 1.7 µM
mode of inhibition [2]: uncompetitive dimeric inhibitor
fold weaker binding to E2S2 than to E2S ([2]; KI3obs versus KI2obs): about 2.5 fold
Hill constant ([2]; PPi conc. 35): 2.8
Hill constant ([2]; PPi conc. 71): 2.8
Hill constant ([2]; PPi conc. 142): 1.9
Hill constant ([2]; PPi conc. 1071): 2.2
Hill constant ([2]; PPi conc. 1428): 1.9
Hill constant ([2]; PPi conc. not printed (line between 142 and 1071)): 2.2
Ki ([2]; binding to E2 (no substrate), data not shown, read-out: KI1 (mean value when included in the fit)): ≥ 250 µM
binding to E2 (in words) ([2]; enzyme without substrate): does not bind to E2 at concentrations we are able to achieve
Ki ([2]; observed inhibition constant for binding to the E2S2 complex, n = 2 (ATC dimer), read-out: KI3obs): 3.18 ± 0.15 µM
Ki ([2]; observed inhibition constant for binding to the E2S complex, n = 2 (ATC dimer), read-out: KI2obs): 1.37 ± 0.09 µM
Hill coefficient for ATC binding ([2]; substrate concentrations greater than 100 μM): 2
Hill coefficient ([2]; very low substrate concentrations (below 100 μM)): 3
IC50 [3, 7]: 83.6 µM
logIC50 [3, 7]: 1.9
IC50 ([3]; isolated P. falciparum membranes, preliminary studies): ~80 µM
fold lower than in T. maritima test system [4]: at least 40 fold
anti-plasmodial activity (in words) ([5]; P. falciparum survival assays): did not show any anti-plasmodial activity
IC50 ([5]; Plasmodium falciparum, P. falciparum 3D7, 72 h, read-out: anti-plasmodial activity, highest concentration without activity): > 100 µM
Hill constant [6]: 2.0

Nc1nc2ccc(CNC(=O)c3ccccc3)cc2s1 [compound 2]
activity against TmPPase (in words) [1]: inactive
IC50 [1]: > 500 µM

Nc1nc2ccc(CNC(=O)c3cccs3)cc2s1 [compound 3]
activity against TmPPase (in words) [1]: inactive
IC50 [1]: > 500 µM

Nc1nc2ccc(CNC(=O)c3ccco3)cc2s1 [compound 4]
fold less active / weaker than ATC [1]: approximately 10 fold

Nc1nc2ccc(CNC(=O)c3ccc[nH]3)cc2s1 [compound 5]
fold less active / weaker than ATC [1]: approximately 10 fold

Nc1nc2ccc(CNC(=O)c3cc4cccc(Br)c4[nH]3)cc2s1 [compound 6]
IC50 [1]: 21.4 µM

Nc1nc2ccc(CNC(=O)c3nc4ccccc4[nH]3)cc2s1 [compound 9]
activity against TmPPase (in words) [1]: fully inactive
IC50 [1]: > 500 µM
